Results reported in patent publication US11674952B2, “Embryonic cell-based therapeutic candidate screening systems, models for Huntington's Disease and uses thereof” (The Rockefeller University, priority 2016, dated 2023).
Entries after “also recorded” stand apart in the source; their conditions may differ.

System: RUES2-Q150 cells
Test: Germ layer micropattern screen: BMP4-differentiated hESC colonies, reversion of the HD-dependent micropattern signature
Type: cell-based, human
Details: kinetin 1 μM for 2-24 hours prior to BMP4 addition
Excerpt: Micropattern cultures were established according to methods described in Warmflash et al., Nature Methods. 2014 August: 11(8):847-854. This procedure is briefly described in Materials and Methods.
Cells confined to circular micropatterns and differentiated with BMP4 produce an ordered array of germ layers along the radial axis of the colony. This order results from self-organized signaling which confines response to the BMP4 to the colony border while inducing a broader gradient of Activin/Nodal signaling to pattern mesendodermal fates. Control of fates is established from the border of the colony so that as colony size is reduced the central fates are lost. Thus, given minimal geometric and signaling cues, hESCs will self-organize to generate embryonic patterns such as those of the human gastrula.
The Applicants next applied micropattern technology to the isogenic hESC lines for Huntington's Disease. […]
The spatial expression of germ markers Sox2, Bra, and Cdx2 was compared between RUES2 and RUES2-Q150 cells (FIG. 6). […] Tri dimensional geometry was evaluated by first generating images of cells at different focal planes known as “Z-stacks”. […]

Compound: c1coc(CNc2ncnc3[nH]cnc23)c1 [kinetin]
- rescue of HD-dependent micropattern signature (SOX2+ area; Sox2 and Bra/Cdx2 territories): reduced or reverted HD-dependent micropattern signature; also recorded: restore the HD-dependent micropattern signature; also recorded: at least partially rescued; also recorded: partial but significant rescue of phenotype
- rescue of cell number phenotype (total number of cells per micropattern, cell density): restored the cell density; also recorded: restored the cell number phenotype; also recorded: rescues the cell number phenotype
